SMILES strings stand for the structures.

These results are taken from ChEMBL document CHEMBL5465560, “Selectivity Literature for EUbOPEN Chemogenomic Library” (2024).

Assay [1] addresses Homeodomain-interacting protein kinase 4 (Homo sapiens, UniProt Q8NE63). The experiment in a line: Selectivity interaction (Enzymatic assay (Eurofins)) EUB0001049a HIPK4.
The target of assay [2] is Maternal embryonic leucine zipper kinase (Homo sapiens) (UniProt Q14680). The experiment in a line: Selectivity interaction (KinomeScan (DiscoverX)) EUB0000695a MELK. The following applies: at 100 nM.
Sequence of Maternal embryonic leucine zipper kinase (Homo sapiens) (Q14680 whole entry, looked up): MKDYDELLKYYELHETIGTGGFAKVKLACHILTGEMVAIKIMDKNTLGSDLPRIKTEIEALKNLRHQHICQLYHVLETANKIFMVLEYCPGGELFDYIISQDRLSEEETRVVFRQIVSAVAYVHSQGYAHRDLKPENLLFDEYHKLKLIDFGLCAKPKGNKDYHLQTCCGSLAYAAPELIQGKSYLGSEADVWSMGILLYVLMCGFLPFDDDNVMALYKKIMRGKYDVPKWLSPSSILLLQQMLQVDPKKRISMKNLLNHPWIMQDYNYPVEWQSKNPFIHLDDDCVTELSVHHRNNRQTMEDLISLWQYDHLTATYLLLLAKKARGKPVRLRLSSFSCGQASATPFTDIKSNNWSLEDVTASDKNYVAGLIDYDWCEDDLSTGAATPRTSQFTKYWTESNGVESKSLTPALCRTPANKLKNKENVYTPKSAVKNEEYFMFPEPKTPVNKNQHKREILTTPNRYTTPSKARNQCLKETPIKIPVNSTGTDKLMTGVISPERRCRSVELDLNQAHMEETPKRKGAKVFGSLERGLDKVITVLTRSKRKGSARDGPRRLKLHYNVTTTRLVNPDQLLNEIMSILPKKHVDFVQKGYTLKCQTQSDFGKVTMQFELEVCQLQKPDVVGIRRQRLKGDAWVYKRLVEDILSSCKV
Assay [3] addresses T1, Histone-lysine N-methyltransferase SETD7 (Homo sapiens) (UniProt Q8WTS6).
T1 sequence (whole entry): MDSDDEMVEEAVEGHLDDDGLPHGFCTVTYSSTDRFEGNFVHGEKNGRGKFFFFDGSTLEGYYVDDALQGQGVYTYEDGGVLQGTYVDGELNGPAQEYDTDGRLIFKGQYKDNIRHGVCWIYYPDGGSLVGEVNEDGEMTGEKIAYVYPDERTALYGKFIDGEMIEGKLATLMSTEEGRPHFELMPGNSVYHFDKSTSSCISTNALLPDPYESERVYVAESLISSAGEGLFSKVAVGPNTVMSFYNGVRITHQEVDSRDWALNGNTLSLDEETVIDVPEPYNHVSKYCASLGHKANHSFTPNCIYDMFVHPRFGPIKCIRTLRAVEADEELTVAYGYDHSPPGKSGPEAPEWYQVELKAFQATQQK
The experiment in a line: Selectivity interaction (Methyltransferase screen (radiometric assays, panel of 8 PRMTs, 21 protein lysine methyltransferases, 3 DNA methyltransferases, and one RNA methyltransferase)) EUB0000272b SETD7.

Assay [4] addresses T2, Serine/threonine-protein kinase TAO2 (Homo sapiens) (UniProt Q9UL54).
T2 sequence (whole entry): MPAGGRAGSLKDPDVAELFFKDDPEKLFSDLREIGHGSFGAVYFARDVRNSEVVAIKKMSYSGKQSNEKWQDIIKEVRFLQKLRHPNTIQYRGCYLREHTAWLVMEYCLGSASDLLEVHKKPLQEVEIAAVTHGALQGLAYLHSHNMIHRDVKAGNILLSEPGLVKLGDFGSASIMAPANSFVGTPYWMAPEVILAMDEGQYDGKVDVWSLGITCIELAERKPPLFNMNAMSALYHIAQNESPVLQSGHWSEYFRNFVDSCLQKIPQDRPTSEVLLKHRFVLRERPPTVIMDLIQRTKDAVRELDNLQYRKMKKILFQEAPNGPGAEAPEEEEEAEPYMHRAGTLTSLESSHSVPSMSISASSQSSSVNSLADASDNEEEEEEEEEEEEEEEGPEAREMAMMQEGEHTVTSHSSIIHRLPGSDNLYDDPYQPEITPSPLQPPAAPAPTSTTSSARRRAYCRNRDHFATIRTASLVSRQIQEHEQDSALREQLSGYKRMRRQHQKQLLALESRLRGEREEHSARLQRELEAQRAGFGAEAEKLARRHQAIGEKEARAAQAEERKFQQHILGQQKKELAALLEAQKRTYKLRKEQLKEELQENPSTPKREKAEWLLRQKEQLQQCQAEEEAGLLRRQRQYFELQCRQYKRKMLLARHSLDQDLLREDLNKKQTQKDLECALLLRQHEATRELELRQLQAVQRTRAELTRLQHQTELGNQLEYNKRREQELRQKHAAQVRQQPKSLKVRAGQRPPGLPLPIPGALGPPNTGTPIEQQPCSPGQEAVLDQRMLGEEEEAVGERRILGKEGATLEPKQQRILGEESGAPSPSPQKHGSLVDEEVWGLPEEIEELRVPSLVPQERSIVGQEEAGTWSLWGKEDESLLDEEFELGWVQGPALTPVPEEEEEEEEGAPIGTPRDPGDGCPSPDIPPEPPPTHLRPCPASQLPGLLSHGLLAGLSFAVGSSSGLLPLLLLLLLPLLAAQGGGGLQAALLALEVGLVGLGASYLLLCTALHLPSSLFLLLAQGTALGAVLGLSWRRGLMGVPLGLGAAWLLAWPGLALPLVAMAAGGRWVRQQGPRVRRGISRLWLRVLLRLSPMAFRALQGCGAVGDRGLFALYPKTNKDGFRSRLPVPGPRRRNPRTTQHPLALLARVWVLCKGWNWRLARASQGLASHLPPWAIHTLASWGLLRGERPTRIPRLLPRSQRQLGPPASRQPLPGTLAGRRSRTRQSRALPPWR
Kind of assay: Selectivity interaction (KinomeScan (DiscoverX)) EUB0000607a TAOK2. To be noted: at 10 µM.

Assay [5] deals with T3, Phosphatidylinositol 5-phosphate 4-kinase type-2 gamma (Homo sapiens) (UniProt Q8TBX8).
T3 sequence (whole entry): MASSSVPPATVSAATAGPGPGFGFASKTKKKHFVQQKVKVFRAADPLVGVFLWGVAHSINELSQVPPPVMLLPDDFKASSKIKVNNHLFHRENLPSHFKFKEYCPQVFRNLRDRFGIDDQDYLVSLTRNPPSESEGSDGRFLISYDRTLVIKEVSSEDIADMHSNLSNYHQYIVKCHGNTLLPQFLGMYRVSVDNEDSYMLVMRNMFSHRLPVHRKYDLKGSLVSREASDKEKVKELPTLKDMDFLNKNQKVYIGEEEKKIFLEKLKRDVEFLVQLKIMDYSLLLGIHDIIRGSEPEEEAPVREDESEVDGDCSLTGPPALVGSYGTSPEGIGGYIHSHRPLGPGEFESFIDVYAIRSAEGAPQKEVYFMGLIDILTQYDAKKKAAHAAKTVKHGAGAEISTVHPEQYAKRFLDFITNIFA
The experiment in a line: Selectivity interaction (ActivX KiNativ screen (kinase selectivity in THP-1 cell lysates)) EUB0000639a PIP4K2C. The format is subcellular. The following applies: lysate, at 5 µM.

The test system of assay [6] is Mast/stem cell growth factor receptor Kit (Homo sapiens), P10721 [D816H]. The experiment in a line: (§1) Selectivity interaction (KinomeScan (DiscoverX)) EUB0000595a KIT. To be noted: at 10 µM.
Sequence of Mast/stem cell growth factor receptor Kit (Homo sapiens), P10721 [D816H] (P10721 whole entry D816H): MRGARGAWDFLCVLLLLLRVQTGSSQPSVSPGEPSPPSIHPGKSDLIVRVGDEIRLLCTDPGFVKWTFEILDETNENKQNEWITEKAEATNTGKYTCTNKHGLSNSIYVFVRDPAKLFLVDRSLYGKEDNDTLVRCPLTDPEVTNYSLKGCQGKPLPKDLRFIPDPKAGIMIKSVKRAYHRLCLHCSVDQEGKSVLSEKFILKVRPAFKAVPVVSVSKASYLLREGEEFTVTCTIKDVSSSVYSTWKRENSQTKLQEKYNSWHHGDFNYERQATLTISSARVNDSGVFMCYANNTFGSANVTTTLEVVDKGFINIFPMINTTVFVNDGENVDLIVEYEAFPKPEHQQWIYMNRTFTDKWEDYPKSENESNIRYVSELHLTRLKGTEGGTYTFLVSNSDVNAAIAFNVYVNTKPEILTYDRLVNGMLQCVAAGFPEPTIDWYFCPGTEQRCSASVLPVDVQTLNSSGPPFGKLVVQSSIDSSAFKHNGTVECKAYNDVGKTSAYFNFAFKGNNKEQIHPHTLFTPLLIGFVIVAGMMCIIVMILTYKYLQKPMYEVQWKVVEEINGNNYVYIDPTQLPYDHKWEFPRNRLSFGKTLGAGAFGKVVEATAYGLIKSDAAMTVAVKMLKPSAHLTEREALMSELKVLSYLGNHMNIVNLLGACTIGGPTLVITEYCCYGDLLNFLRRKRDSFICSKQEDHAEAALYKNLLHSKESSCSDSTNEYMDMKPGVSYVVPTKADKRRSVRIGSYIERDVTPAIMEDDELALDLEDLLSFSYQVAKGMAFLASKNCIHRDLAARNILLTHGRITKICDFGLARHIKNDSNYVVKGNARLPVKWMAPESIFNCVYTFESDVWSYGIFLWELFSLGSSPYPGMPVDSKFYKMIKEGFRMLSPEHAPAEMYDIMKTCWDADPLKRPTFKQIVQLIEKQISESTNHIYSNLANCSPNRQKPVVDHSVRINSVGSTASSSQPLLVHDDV
Assay [7] deals with Mast/stem cell growth factor receptor Kit (Homo sapiens), P10721 [D816V]. The description is as §1. The following applies: at 10 µM.
Sequence of Mast/stem cell growth factor receptor Kit (Homo sapiens), P10721 [D816V] (P10721 whole entry D816V): as the sequence (P10721 whole entry D816H) above, with H816V counted along it
Assay [8] concerns Mast/stem cell growth factor receptor Kit (Homo sapiens), P10721 [L576P]. The assay is described as §1. To be noted: at 10 µM.
Sequence of Mast/stem cell growth factor receptor Kit (Homo sapiens), P10721 [L576P] (P10721 whole entry L576P): as the sequence (P10721 whole entry D816H) above, with L576P, H816D counted along it
Assay [9] relates to Mast/stem cell growth factor receptor Kit (Homo sapiens), P10721 [V559D,T670I]. The description is as §1. The following applies: at 10 µM.
Sequence of Mast/stem cell growth factor receptor Kit (Homo sapiens), P10721 [V559D,T670I] (P10721 whole entry V559D/T670I): as the sequence (P10721 whole entry D816H) above, with V559D, T670I, H816D counted along it
For assay [10], the system named is Mast/stem cell growth factor receptor Kit (Homo sapiens), P10721 [V559D,V654A]. The description is as §1. To be noted: at 10 µM.
Sequence of Mast/stem cell growth factor receptor Kit (Homo sapiens), P10721 [V559D,V654A] (P10721 whole entry V559D/V654A): as the sequence (P10721 whole entry D816H) above, with V559D, V654A, H816D counted along it
Assay [11] concerns Mast/stem cell growth factor receptor Kit (Homo sapiens), P10721 [V559D]. The assay is described as §1. The following applies: at 10 µM.
Sequence of Mast/stem cell growth factor receptor Kit (Homo sapiens), P10721 [V559D] (P10721 whole entry V559D): as the sequence (P10721 whole entry D816H) above, with V559D, H816D counted along it
The target in assay [12] is RAC-beta serine/threonine-protein kinase (Homo sapiens) (UniProt P31751). Kind of assay: Selectivity interaction (KinomeScan (DiscoverX)) EUB0001619a AKT2. The following applies: at 1 µM.
Sequence of RAC-beta serine/threonine-protein kinase (Homo sapiens) (P31751 whole entry): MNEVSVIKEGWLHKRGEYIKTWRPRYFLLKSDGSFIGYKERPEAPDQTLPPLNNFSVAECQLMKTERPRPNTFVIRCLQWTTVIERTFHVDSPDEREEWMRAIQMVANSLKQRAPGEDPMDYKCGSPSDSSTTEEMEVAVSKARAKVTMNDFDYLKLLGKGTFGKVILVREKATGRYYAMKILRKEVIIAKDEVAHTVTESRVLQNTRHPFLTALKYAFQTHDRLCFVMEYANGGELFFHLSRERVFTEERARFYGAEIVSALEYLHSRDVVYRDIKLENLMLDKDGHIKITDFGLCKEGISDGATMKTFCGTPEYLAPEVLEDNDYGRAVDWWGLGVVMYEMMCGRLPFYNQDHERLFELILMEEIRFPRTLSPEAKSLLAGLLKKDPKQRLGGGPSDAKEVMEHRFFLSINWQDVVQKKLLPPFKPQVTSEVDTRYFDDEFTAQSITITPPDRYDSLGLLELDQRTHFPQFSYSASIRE

Sequence of Homeodomain-interacting protein kinase 4 (Q8NE63 whole entry): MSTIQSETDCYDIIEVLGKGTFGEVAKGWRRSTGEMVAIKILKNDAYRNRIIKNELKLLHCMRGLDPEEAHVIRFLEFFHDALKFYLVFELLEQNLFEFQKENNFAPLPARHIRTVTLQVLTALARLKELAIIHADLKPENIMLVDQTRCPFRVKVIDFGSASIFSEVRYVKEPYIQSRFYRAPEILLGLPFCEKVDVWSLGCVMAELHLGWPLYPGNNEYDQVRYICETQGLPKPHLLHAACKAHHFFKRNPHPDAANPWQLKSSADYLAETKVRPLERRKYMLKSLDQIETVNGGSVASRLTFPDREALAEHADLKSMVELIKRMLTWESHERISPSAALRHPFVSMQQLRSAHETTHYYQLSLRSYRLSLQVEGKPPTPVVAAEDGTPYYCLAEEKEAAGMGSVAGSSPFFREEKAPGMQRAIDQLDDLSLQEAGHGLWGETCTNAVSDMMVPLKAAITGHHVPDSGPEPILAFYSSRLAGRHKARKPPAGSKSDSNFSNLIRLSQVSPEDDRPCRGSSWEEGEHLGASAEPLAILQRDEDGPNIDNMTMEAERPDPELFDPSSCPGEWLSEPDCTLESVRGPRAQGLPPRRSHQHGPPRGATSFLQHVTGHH

Consider `COc1cc(Nc2nc(C)cc(-c3cnn4nc(OC)ccc34)n2)cc(C(F)(F)F)c1`, for which, in assay [1], the IC50 (commonly the concentration at which inhibition is half-maximal) is more than 10 µM.
In turn, `Cc1cc(F)c(C(=O)Nc2cccc(-c3nncn3C(C)C)n2)cc1-n1cnc(C2CC2)c1` gave a % of control in assay [2] of 100%.
As to `Cc1cc(C)cc([C@H]2c3cc(C)ccc3NC(=O)CN2C(=O)c2ccc(Br)s2)c1`, the results for the % of activity in assay [3] (at 1 µM) and in assay [3] (at 10 µM) were 101% and 99%, respectively.
Consider `CNC(=O)Nc1ccc(-c2nc(N3CC4CCC(C3)O4)c3cnn(C4CCC5(CC4)OCCO5)c3n2)cc1`, for which the % of control in assay [4] stood at 100%.
`CC[C@@H]1[C@H](F)C(=O)N[C@@H]1COc1nccc2cc(C(N)=O)c(OC)cc12` [ZIMLOVISERTIB] returned a % of inhibition in assay [5] of 87.4%.
In the case of `COCC(=O)NC/C=C/c1ccc2ncnc(Nc3ccc(Oc4ccc(C)nc4)c(C)c3)c2c1` [CP-724714], the % of control worked out at 100% in assay [6]; 89% in [7]; 54% in assay [8]; 100% in assay [9]; 88% in [10]; 17% in assay [11].
Take `N#Cc1cccc(-c2c[nH]c3ncnc(N4CCOCC4)c23)c1`: the % of control in [12] stood at 100%.
